Test results reported in the CheMixHub ionic liquid set.

Experiment: xn = mol fraction of the nth substance listed

CCCCCCCCn1cc[n+](C)c1.F[B-](F)(F)F + CC1COC(=O)O1
Conditions	viscosity [mPa·s]
303.15 K, 99.7 kPa, x2 = 0.4086	38.9

CCCC[N+]1(C)CCCC1.O=S(=O)([N-]S(=O)(=O)C(F)(F)F)C(F)(F)F + CC1COC(=O)O1
Conditions	electrical conductivity [S/m]	viscosity [mPa·s]
253.15 K, 101 kPa, x2 = 0.11	0.026	–
253.15 K, 101 kPa, x2 = 0.21	0.04	–
253.15 K, 101 kPa, x2 = 0.47	0.108	–
253.15 K, 101 kPa, x2 = 0.63	0.183	–
253.15 K, 101 kPa, x2 = 0.79	0.27	–
253.15 K, 101 kPa, x2 = 0.89	0.283	–
258.15 K, 101 kPa, x2 = 0.16	0.052	–
258.15 K, 101 kPa, x2 = 0.26	0.073	–
258.15 K, 101 kPa, x2 = 0.58	0.199	–
263.15 K, 101 kPa, x2 = 0.05	0.053	–
263.15 K, 101 kPa, x2 = 0.37	0.14	–
263.15 K, 101 kPa, x2 = 0.53	0.225	–
268.15 K, 101 kPa, x2 = 0.68	0.418	–
273.15 K, 101 kPa, x2 = 0	0.109	–
273.15 K, 101 kPa, x2 = 0.26	0.195	–
273.15 K, 101 kPa, x2 = 0.42	0.281	–
273.15 K, 101 kPa, x2 = 0.74	0.535	–
278.15 K, 101 kPa, x2 = 0.26	0.253	–
278.15 K, 101 kPa, x2 = 0.95	0.504	–
283.15 K, 101 kPa, x2 = 0.05	0.212	–
283.15 K, 101 kPa, x2 = 0.16	0.257	–
283.15 K, 101 kPa, x2 = 0.37	0.382	–
283.15 K, 101 kPa, x2 = 0.58	0.557	–
283.15 K, 101 kPa, x2 = 0.68	0.654	–
283.15 K, 101 kPa, x2 = 0.89	0.698	–
283.15 K, 101 kPa, x2 = 0.95	0.566	–
283.15 K, 101 kPa, x2 = 0.97	0.458	–
288.15 K, 101 kPa, x2 = 0.26	0.384	–
288.15 K, 101 kPa, x2 = 0.47	0.547	–
288.15 K, 101 kPa, x2 = 0.74	0.787	–
288.15 K, 101 kPa, x2 = 0.79	0.817	–
293.15 K, 100 kPa, x2 = 0.8	0.93	7.8
293.15 K, 101 kPa, x2 = 0	0.303	86.1
293.15 K, 101 kPa, x2 = 0.53	0.689	21.23
293.15 K, 101 kPa, x2 = 0.79	0.91	7.77
298.15 K, 101 kPa, x2 = 0.32	0.581	28.28
298.15 K, 101 kPa, x2 = 0.37	–	25.45
298.15 K, 101 kPa, x2 = 0.42	0.678	22.81
298.15 K, 101 kPa, x2 = 0.63	0.892	12.82
303.15 K, 101 kPa, x2 = 0.21	0.574	29.14
303.15 K, 101 kPa, x2 = 0.42	0.771	19
303.15 K, 101 kPa, x2 = 0.63	1.001	10.87
303.15 K, 101 kPa, x2 = 0.74	1.091	7.36
303.15 K, 101 kPa, x2 = 0.84	1.099	4.68
308.15 K, 101 kPa, x2 = 0.37	0.816	17.76
313.15 K, 101 kPa, x2 = 0.21	0.75	20.27
313.15 K, 101 kPa, x2 = 0.32	0.858	16.62
313.15 K, 101 kPa, x2 = 0.47	1.036	12.28
313.15 K, 101 kPa, x2 = 0.79	1.3	4.64
313.15 K, 101 kPa, x2 = 0.84	1.271	3.75
313.15 K, 101 kPa, x2 = 0.97	0.721	–
318.15 K, 101 kPa, x2 = 0	–	29.72
318.15 K, 101 kPa, x2 = 0.05	–	25.14
318.15 K, 101 kPa, x2 = 0.47	–	10.64
318.15 K, 101 kPa, x2 = 0.89	–	2.77

100 kPa, frequency 0.003 MHz
Conditions	electrical conductivity [S/m]
297.1 K, x1 = 0.8	0.396
299.8 K, x1 = 0.4	0.804
299.9 K, x1 = 0.8	0.413
310.9 K, x1 = 0.8	0.527
313.5 K, x1 = 0.4	0.931
313.7 K, x1 = 0.2	1.15
313.7 K, x1 = 0.8	0.552
316.2 K, x1 = 0.2	1.17
319.3 K, x1 = 0.6	0.727
322.3 K, x1 = 0.9	0.559
327.6 K, x1 = 0.6	0.788
330.3 K, x1 = 0.2	1.26
330.6 K, x1 = 0.9	0.636
338.9 K, x1 = 0.2	1.31
338.9 K, x1 = 0.8	0.768
341.4 K, x1 = 0.8	0.788
341.6 K, x1 = 0.6	0.886
346.8 K, x1 = 0.4	1.18
349.7 K, x1 = 0.4	1.21

CCCC[P+](CC)(CCCC)CCCC.F[B-](F)(F)F + CC#N
viscosity [mPa·s], 100 kPa
Conditions	x1 = 0.004068	x1 = 0.008179	x1 = 0.01204	x1 = 0.01601	x1 = 0.01998	x1 = 0.02358	x1 = 0.02792	x1 = 0.03171	x1 = 0.03517	x1 = 0.03939
293.15 K	0.373	0.392	0.411	0.431	0.452	0.473	0.497	0.521	0.542	0.57
298.15 K	0.355	0.374	0.391	0.41	0.429	0.448	0.471	0.494	0.513	0.539
303.15 K	0.34	0.357	0.373	0.391	0.409	0.426	0.448	0.469	0.486	0.511
308.15 K	0.326	0.342	0.356	0.372	0.389	0.406	0.426	0.446	0.462	0.486
313.15 K	0.313	0.327	0.341	0.356	0.372	0.389	0.406	0.424	0.44	0.463
318.15 K	0.3	0.313	0.326	0.341	0.356	0.37	0.387	0.404	0.419	0.44

CCCC[n+]1ccn(C)c1.[Cl-] + CC#N
298.15 K, 101 kPa, x2 = 0.8012
Conditions	electrical conductivity [S/m]	viscosity [mPa·s]
–	1.53	3.52

CCCC[n+]1ccn(C)c1.COP(=O)([O-])OC + CC(=O)O.CC(=O)[O-].CC[NH+](CC)CCO
101 kPa, x2 = 0
Conditions	viscosity [mPa·s]
283.15 K	2142
298.15 K	609
353.15 K	36.02
358.15 K	30.38

CCCC[n+]1ccn(C)c1.COP(=O)([O-])OC + CC(=O)[O-].CCCC[NH2+]CCO
101 kPa, x2 = 0
Conditions	viscosity [mPa·s]
278.15 K	3503
283.15 K	2142
288.15 K	1361
293.15 K	895
298.15 K	609
303.15 K	426
308.15 K	305.8
313.15 K	224.9
318.15 K	168.9
323.15 K	129.4
328.15 K	100.9
333.15 K	79.9
338.15 K	64.25
343.15 K	52.35
348.15 K	43.18
353.15 K	36.02
358.15 K	30.38
363.15 K	25.86
368.15 K	22.22
373.15 K	19.25
